From ChEMBL document CHEMBL4145580, “Sesquiterpenoids from Chloranthus anhuiensis with Neuroprotective Effects in PC12 Cells” (J Nat Prod, 2018) come the findings set out here.

The source made the active and inactive calls. No cut-off for these calls is given here.

The test system of the first test is PC-12. Kind of test: Neuroprotective activity against glutamate-induced apoptotic cell death in rat PC12 cells assessed as decrease in caspase-3 level at 10 to 40 uM measured after 24 hrs. Format: functional, cell-based.
Turning to `CC(=O)OC[C@@H]1[C@H]2C[C@H]2[C@]2(C)C=C3OC(=O)C(CO)=C3C[C@@H]12`, the result was Active.

In a further test the test system is PC-12. Kind of test: Neuroprotective activity against glutamate-induced neuronal cell death in rat PC12 cells assessed as increase in cell viability pretreated for 2 hrs followed by glutamate challenge measured after 24 hrs by MTT assay. Format: functional, cell-based.
Usually EC50 stands for the concentration needed to bring the measured effect to its halfway point. On to `C=C1CCC[C@]2(C)C(=O)c3occ(C)c3C[C@@H]12`, for which the EC50 was found to be 119 µM. Take `C=C(C)[C@@H]1CC[C@]2(C)C(=C(C)C(=O)C[C@H]2O)C1`: the result was inactive.

As to `CC1=C2C[C@@]3(C)[C@H](C[C@H]2OC1=O)C(=O)CC[C@@H]3C`, the result was inactive. On to `CC(=O)OC[C@@H]1[C@H]2C[C@H]2[C@]2(C)C=C3OC(=O)C(CO)=C3C[C@@H]12`, for which the EC50 was determined as 3.3 µM. Same read-out and setting: then `CC(=O)CCc1c(C)ccc2c1C(=O)OC2(C)C`, with 93.1 µM. On to `C=C1CCC[C@]2(C)C=C3OC(=O)C(C)=C3C[C@@H]12`, for which the outcome was inactive. As for `CC1=C2C[C@@]3(C)[C@H](C[C@@]2(O)OC1=O)C(=O)CC[C@@H]3C`, the outcome was inactive. In the case of `CC1=C2C(=O)[C@@](O)(C(C)C)CC[C@@]2(C)CCC1=O`, the EC50 was determined as 132 µM. Turning to `CC1=C2C(=O)c3c(C)coc3C[C@@]2(C)C=CC1=O`, the 50% effective concentration (EC50) amounted to 106 µM. As for `CC(=O)OC[C@@H]1[C@H]2C[C@H]2[C@]2(C)C=C3OC(=O)C(C)=C3C[C@@H]12`, the outcome was inactive.

On to `CC1=C2C[C@@H]3[C@@](C)(C=C2OC1=O)CCC[C@@]3(C)O`, for which the result was inactive. The same measure, in the same setting: then `CC1=C2C(=O)c3c(C)coc3[C@@H](O)[C@]2(C)[C@@H](O)CC1`, with “inactive”.

In the case of `C=C1CCC[C@]2(C)C[C@]3(O)OC(=O)C(C)=C3C[C@@H]12` [ATRACTYLENOLIDE III], the result was inactive and the EC50 came out at 36.3 µM. For the molecule `C=C[C@]1(C)C[C@@H]2OC(=O)C(C)=C2C[C@H]1C(=C)C` [ISOGERMAFURENOLIDE], the EC50 is 24.3 µM. Same read-out and setting: then `COCCOC(=O)C1=C(C)NC(C)=C(C(=O)OC(C)C)C1c1cccc([N+](=O)[O-])c1` (centres undefined) [NIMODIPINE], with 97.3 µM. For `CC1=C(C[C@@H]2OC(=O)[C@@H](C)CC/C=C\2C)C(=O)OC1`, the outcome was inactive.

With `Cc1coc2c1C(=O)[C@H]1[C@@H](C)CC[C@H](O)[C@]1(C)C2=O`, the EC50 came out at 51.4 µM. As for `Cc1coc2c1C(=O)[C@H]1[C@@](C)(O)CCC(=O)[C@]1(C)C2`, the result was inactive.

On to `Cc1coc2c1C(=O)[C@@H]1[C@@](C)(C2)C(=O)CC[C@@]1(C)O`, for which the concentration for a half-maximal effect (EC50) worked out at 107 µM.

As to `C=C1CC[C@@H]2C(=C)C[C@@]3(O)OC(=O)C(C)=C3[C@@]2(O)C1`, the EC50 was 15.2 µM.

As to `C=C1[C@H]2C[C@H]2[C@]2(COC(C)=O)C[C@@H]3OC(=O)C(C)=C3C[C@@H]12`, the 50% effective concentration (EC50) stood at 89.5 µM. On the same count and under the same terms, then `Cc1coc2c1C(=O)[C@H]1O[C@]1(C)CC[C@@H](O)[C@](C)(O)C2`, with 70.3 µM. On to `CC1=C2C[C@@H]3[C@](C)(CCC[C@]3(C)O)C[C@]2(O)OC1=O`, for which the outcome was inactive. Same read-out and setting: then `C=C1[C@H](O)CC[C@@]2(C)C[C@@]3(O)OC(=O)C(C)=C3C[C@H]12`, with “inactive”; and `Cc1coc2c1C(=O)[C@@H]1[C@@](C)(C2)[C@H](O)CC[C@@]1(C)O`, with “inactive”; and `Cc1coc2c1C[C@@H]1[C@](C)(CCC[C@@]1(C)O)C2`, with “inactive”. Still for that read-out and setting: then `CC1=C2C(=O)c3c(C)coc3C(=O)[C@@]2(C)[C@@H](O)CC1`, with “inactive”.

With `CC1=C2C(=O)[C@@](O)(C(C)C)CC[C@]2(C)CCC1`, the outcome was inactive. Turning to `C=C1CCC[C@]2(C)C=C3OC(=O)C(C)=C3[C@H](O)[C@@H]12`, the outcome was inactive.

For `Cc1coc2c1C(=O)[C@H]1[C@](C)(C2=O)[C@@H](O)CC[C@@]1(C)O`, the result was inactive.

Another test deals with RAC-alpha serine/threonine-protein kinase (Rattus norvegicus) (UniProt P47196). The test can be described thus: Increase in Akt phosphorylation in glutamate-induced rat PC12 cells at 10 to 40 uM measured after 24 hrs by Western blot analysis.
Chain of RAC-alpha serine/threonine-protein kinase (Rattus norvegicus) (P47196 whole entry): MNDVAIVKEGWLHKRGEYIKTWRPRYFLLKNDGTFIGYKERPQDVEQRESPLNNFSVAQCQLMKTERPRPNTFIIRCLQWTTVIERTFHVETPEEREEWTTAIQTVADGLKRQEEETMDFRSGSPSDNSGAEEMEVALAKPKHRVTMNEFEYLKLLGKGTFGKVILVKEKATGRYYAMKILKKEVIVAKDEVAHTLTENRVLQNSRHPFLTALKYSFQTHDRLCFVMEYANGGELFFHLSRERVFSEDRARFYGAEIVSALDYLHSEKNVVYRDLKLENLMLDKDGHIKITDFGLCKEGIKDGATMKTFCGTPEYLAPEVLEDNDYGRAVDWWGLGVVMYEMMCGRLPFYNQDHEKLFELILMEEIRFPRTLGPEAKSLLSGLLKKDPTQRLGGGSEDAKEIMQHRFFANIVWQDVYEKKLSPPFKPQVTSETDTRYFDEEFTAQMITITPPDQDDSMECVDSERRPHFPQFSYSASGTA
Consider `CC(=O)OC[C@@H]1[C@H]2C[C@H]2[C@]2(C)C=C3OC(=O)C(CO)=C3C[C@@H]12`, for which the result was Active.

The test system of the next test is PC-12. The test can be described thus: Neuroprotective activity against glutamate-induced apoptotic cell death in rat PC12 cells assessed as apoptotic neurons at 10 to 40 uM pretreated with compound followed by glutamate challenge measured after 24 hrs by Hoechst 33258 staining based assay (reference value: 65.5%). Format: functional.
For the molecule `CC(=O)OC[C@@H]1[C@H]2C[C@H]2[C@]2(C)C=C3OC(=O)C(CO)=C3C[C@@H]12`, the Activity is 7.2 - 23.7%.
